# Reference: paper PMC6884575, “Suppression of FOXM1 activities and breast cancer growth in vitro and in vivo by a new class of compounds” (NPJ Breast Cancer, 2019)
# Assays:
# [1] = Pharmacokinetics in mice after single s.c. or oral dose; format: in vivo, female CD1 mice; details: for AUC / Cmax / half-life: female, CD1, mouse, single dose, plasma
# FOXM1 = target: T1, FOXM1 (Homo sapiens, UniProt Q08050); test: tr-FRET competitive binding assay with Fl-NB-72 probe; design: we attached a terbium donor to purified, full length FOXM1 through a streptavidin-biotin linker; details: calculated from IC50 values; Supplementary Table 1; read-out: Ki, affinity for binding to FOXM1 protein
# T1 sequence (Q08050 1-763): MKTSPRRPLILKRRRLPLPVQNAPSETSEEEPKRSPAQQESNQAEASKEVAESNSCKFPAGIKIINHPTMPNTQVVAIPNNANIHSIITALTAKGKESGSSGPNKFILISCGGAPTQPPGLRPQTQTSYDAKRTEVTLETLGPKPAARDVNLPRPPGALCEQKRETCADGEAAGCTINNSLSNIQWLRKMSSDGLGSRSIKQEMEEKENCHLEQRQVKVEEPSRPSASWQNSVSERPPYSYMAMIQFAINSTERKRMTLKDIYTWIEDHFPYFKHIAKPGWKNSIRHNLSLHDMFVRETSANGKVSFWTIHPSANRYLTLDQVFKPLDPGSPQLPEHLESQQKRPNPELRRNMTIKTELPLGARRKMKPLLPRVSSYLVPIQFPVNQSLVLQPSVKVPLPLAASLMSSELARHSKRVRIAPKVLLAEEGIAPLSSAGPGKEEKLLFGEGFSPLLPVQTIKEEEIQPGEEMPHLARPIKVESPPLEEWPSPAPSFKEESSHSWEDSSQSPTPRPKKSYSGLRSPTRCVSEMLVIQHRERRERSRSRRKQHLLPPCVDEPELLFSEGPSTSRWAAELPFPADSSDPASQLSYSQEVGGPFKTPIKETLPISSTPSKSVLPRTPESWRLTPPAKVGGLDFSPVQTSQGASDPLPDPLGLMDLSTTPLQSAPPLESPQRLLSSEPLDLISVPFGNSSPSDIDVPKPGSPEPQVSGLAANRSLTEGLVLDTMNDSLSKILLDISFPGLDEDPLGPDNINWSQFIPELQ
# Experimental: Competitive binding assays of compound binding to FOXM1 by tr-FRET were done in FRET buffer (20 mM Tris, pH 7.5, 50 mM NaCl, 0.01% NP-40 detergent, 10% glycerol) with 0.3 mg/ml ovalbumin and 0.1 mM butylated hydroxy-anisole added fresh daily. Solutions of the protein, fluorescent probe and compound dilutions were prepared at 3× concentrations, the final dilution taking place as they were mixed together in equal portions on the microtiter plate.
# Final concentrations were 10^−5 M to 10^−9 M, with the last point being buffer only, no compound. Fluorescein-NB-72 (Fl-NB- 72) was prepared at 1 mM in DMF and stored at −20 °C. It was diluted into FRET buffer to give 100 nM in the assay. Incubations were done in duplicate on black Molecular Devices 96-well microtiter plates. 5 μl of Fl-NB-72 and 5 μl of the compound dilutions, were mixed together on the plate. To this was added 5 µl biotin-FoxM1 and incubated in the dark at room temperature, for 1 h. […] To correct for background signals, biotin-FOXM1 was omitted, and diffusion-enhanced FRET incubations were done in duplicate on black Molecular Devices 96-well microtiter plates. Five microliter of Fl-NB-72 and 5 μl of the compound solutions were mixed together and then 5 µl of FRET buffer plus SaTb was added, mixed and incubated in the dark at room temperature, for 1 h. The tr-FRET signals measured as above were subtracted as a background from the first incubations that contained biotin-FOXM1. Graphs were prepared using Graph Pad/Prism 4.
# [2] = tested on: DT22 cells and MCF7 cells; test: Cell proliferation in DT22 and MCF7 cells; format: cell-based, human; details: 3 days
# Experimental: WST-1 assay (Roche, Basel, Switzerland) was used to quantify cell viability as described.[38] […] All assays were performed in triplicate and analyzed using Graph Pad Prism 8.0.
# [3] = tested on: DT22 breast tumor xenografts; test: DT22 human breast tumor xenograft growth in NSG mice; format: in vivo; details: for tumor growth in vivo: low doses (2–20 mg/kg) s.c. daily or every other day; for animal body weight / growth of tumor xenografts: low doses s.c.: NB-115 2 or 6 mg/kg daily, NB-63 20 mg/kg daily then 10 mg/kg every other day from day 20; for tumor growth: DT22 tumors, NSG mice, s.c., 20 mg/kg every other day for 10 days then 10 mg/kg every other day
# Experimental: For examination of the effects of compounds on breast tumor growth suppression, intact female NOD/SCID-gamma (NSG) mice were used as detailed previously.[39] DT-22 breast cancer cells (1 × 10^6 cells/mouse) were injected s.c. into the right axial mammary gland. Mice received s.c. injection or oral gavage daily or every second or third day as indicated, with vehicle or treatment compound, and tumor volume (length × width^2/2) was monitored over time.
# [4] = tested on: FOXM1 target gene expression in MCF7 cells; test: FOXM1 target gene expression by qRT-PCR; format: cell-based, human; details: MCF7, 24 h, compound at its IC50 for proliferation
# Experimental: Total RNA was isolated using TRIzol (Invitrogen) and reverse transcribed using […] reverse transcriptase (New England BioLabs). Real-time PCR was performed using SYBRgreen PCR Master Mix (Quantabio) as described.[15] Relative mRNA levels of genes were normalized to the housekeeping gene 36B4, and fold-change calculated relative to the vehicle treated samples. Results are the average ± SD from at least two independent experiments carried out in triplicate. Primer sequences for the genes studied were obtained from the Harvard Primer Bank. Sequences are available on their website.
# [5] = tested on: tamoxifen-resistant MCF7 breast cancer cells; test: Proliferation of tamoxifen-resistant MCF7 cells; format: cell-based, human; details: 6 days, cell numbers
# Experimental: resistant MCF7 cells. Cells were treated with NB-73 or trans-hydroxytamoxifen (OH-
# Tam) for 6 days and cell numbers were monitored. Values are mean ± SD of three
# (1 picture or pasted object on this page, not shown here)
SMILES,"AUC ([1]; oral, 60 mg/kg) [µM·h]","Cmax ([1]; oral, 60 mg/kg) [nM]","AUC ([1]; sc, 60 mg/kg) [µM·h]","Cmax ([1]; sc, 60 mg/kg) [nM]",Ki (FOXM1) [nM],"Cmax ([1]; oral, 40 mg/kg) [nM]",blood levels of compound ([1]; after oral administration),blood levels of compound ([1]; after s.c. injection),tumor growth in vivo [3],"half-life ([1]; oral, 60 mg/kg) [min]","half-life ([1]; sc, 60 mg/kg) [min]",further results
c1cc(C(=C2C3CC4CC(C3)CC2C4)c2ccc(OCCCCCCN3CCCC3)cc2)ccc1OCCCCCCN1CCCC1 [NB-65],3.23,80,14.8,580,190,,,,,,,
CCN(CC)CCCCCCOc1ccc(C(c2ccc(OCCCCCCN(CC)CC)cc2)=C2[C@H]3C[C@@H]4C[C@@H](C[C@H]2C4)C3)cc1 [NB-51],,,,,130,110,,,,,,"AUC ([1]; oral, 40 mg/kg): 1.81 µM·h; half-life ([1]; oral, 40 mg/kg): 1210 min; AUC ([1]; sc, 20 mg/kg): 4.73 µM·h; Cmax ([1]; sc, 20 mg/kg): 180 nM; half-life ([1]; sc, 20 mg/kg): 3710 min"
C[N+]1(CCCCCCOc2ccc(C(c3ccc(Cl)cc3)=C3C4C[C@H]5C[C@@H](C4)C[C@H]3C5)cc2)CCCC1 [NB-63],,,,,,400,only very low levels,very high blood levels,greatly suppress tumor growth,,,"relative potency in suppressing cell proliferation [2]: potencies very similar to those of their parent amine compounds; AUC ([1]; oral, 40 mg/kg): 1.67 µM·h; half-life ([1]; oral, 40 mg/kg): 348 min; AUC ([1]; sc, 40 mg/kg): 158 µM·h; Cmax ([1]; sc, 40 mg/kg): 5010 nM; half-life ([1]; sc, 40 mg/kg): 1890 min; animal body weight [3]: little impact on animal body weight; growth of tumor xenografts [3]: effective in suppressing the growth of tumor xenografts"
CC[N+](C)(CC)CCCCCCOc1ccc(C(=C2C3CC4CC(C3)CC2C4)c2ccc(OCCCCCC[N+](C)(CC)CC)cc2)cc1 [NB-115],,,,,,100,,,greatly suppress tumor growth,,,"expression of ATF3, a gene suppressed by FOXM1 [4]: increased expression of ATF3; expression of FOXM1 stimulated target genes (FOXM1C, AURKB, CCNB1, PLK1) [4]: significantly reduced the expression; AUC ([1]; sc, 40 mg/kg): 746 µM·h; Cmax ([1]; sc, 40 mg/kg): 34700 nM; half-life ([1]; sc, 40 mg/kg): 2320 min; animal body weight [3]: little impact on animal body weight; growth of tumor xenografts [3]: effective in suppressing the growth of tumor xenografts"
C[N+]1(CCCCCCOc2ccc(C(=C3C4CC5CC(C4)CC3C5)c3ccc(OCCCCCC[N+]4(C)CCCC4)cc3)cc2)CCCC1 [NB-68],0.29,71,127,7120,51,,only very low levels,very high blood levels,greatly suppress tumor growth,372,1420,relative potency in suppressing cell proliferation [2]: potencies very similar to those of their parent amine compounds; tumor growth [3]: greatly suppress tumor growth
c1cc(C(=C2C3CC4CC(C3)CC2C4)c2ccc(OCCCCCCN3CCCCCC3)cc2)ccc1OCCCCCCN1CCCCCC1 [NB-72],11.3,320,15.9,370,,,,,,3640,18100,
c1cc(C(c2ccc(OCCCCCCN3CCCCC3)cc2)=C2[C@H]3C[C@@H]4C[C@@H](C[C@H]2C4)C3)ccc1OCCCCCCN1CCCCC1 [NB-70],8.32,220,10.2,270,,,,,,3070,13300,
C[N+]1(CCCCCCOc2ccc(C(=C3C4CC5CC(C4)CC3C5)c3ccc(OCCCCCC[N+]4(C)CCCCC4)cc3)cc2)CCCCC1 [NB-71],0.08,30,198,9520,,,only very low levels,very high blood levels,greatly suppress tumor growth,,1990,tumor growth [3]: greatly suppress tumor growth
"CC/C(=C(\c1ccc(O)cc1)c1ccc(OCCN(C)C)cc1)c1ccccc1 [trans-hydroxytamoxifen, reference compound]",,,,,,,,,,,,proliferation of tamoxifen-resistant MCF7 cells [5]: weakly stimulated
